Consider 15 molecules from US11739102B2, “Fused pyrimidine compounds as KRAS inhibitors” (Incyte Corporation, priority 2020, dated 2023).

Molecules are shown by their SMILES.

In one assay the target is KRAS G12C (Homo sapiens, UniProt P01116, G12C). The assay can be described thus: GDP-GTP exchange assay (bodipy-GDP/GppNHp, SOS1). The format is biochemical. As to conditions: bodipy-loaded KRAS G12C 2.5 nM, SOS1 150 nM, 2 hours pre-incubation with inhibitor; read-out: G12C_exchange IC50. How it is done:
The inhibitor potency of the exemplified compounds was determined in a fluorescence based guanine nucleotide exchange assay, which measures the exchange of bodipy-GDP (fluorescently labeled GDP) for GppNHp (Non-hydrolyzable GTP analog) to generate the active state of KRAS in the presence of SOS1 (guanine nucleotide exchange factor). Inhibitors were serially diluted in DMSO and a volume of 0.1 μL was transferred to the wells of a black low volume 384-well plate. 5 μL/well volume of bodipy-loaded KRAS G12C diluted to 5 nM in assay buffer (25 mM Hepes pH 7.5, 50 mM NaCl, 10 mM MgCl2 and 0.01% Brij-35) was added to the plate and pre-incubated with inhibitor for 2 hours at ambient temperature. Appropriate controls (enzyme with no inhibitor or with a G12C inhibitor (AMG-510)) were included on the plate. The exchange was initiated by the addition of a 5 μL/well volume containing 1 mM GppNHp and 300 nM SOS1 in assay buffer. The 10 μL/well reaction concentration of the bodipy-loaded KRAS G12C, GppNHp, and SOS1 were 2.5 nM, 500 uM, and 150 nM, respectively. The reaction plates were incubated at ambient temperature for 2 hours, a time estimated for complete GDP-GTP exchange in the absence of inhibitor. For the KRAS G12D and G12V mutants, similar guanine nucleotide exchange assays were used with 2.5 nM as final concentration for the bodipy loaded KRAS proteins and with 4 hours and 3 hours incubation after adding GppNHp-SOS1 mixture for G12D and G12V respectively. A cyclic peptide described to selectively bind G12D mutant (Sakamoto et al., BBRC 484.3 (2017), 605-611) or internal compounds with confirmed binding were used as positive controls in the assay plates. Fluorescence intensities were measured on a PheraStar plate reader instrument (BMG Labtech) with excitation at 485 nm and emission at 520 nm.
Either GraphPad prism or XLfit was used to analyze the data. The IC50 values were derived by fitting the data to a four parameter logistic equation producing a sigmoidal dose-response curve with a variable Hill coefficient. Prism equation: Y=Bottom+(Top−Bottom)/(1+10^((Log IC50−X)*Hill slope)); XLfit equation: Y=(A+((B−A)/(1+((X/C)^D)))) where X is the logarithm of inhibitor concentration and Y is the response.

Assay [1] has as its system MIA PaCa-2 (KRAS G12C) cells. The assay can be described thus: Cellular pERK HTRF assay (KRAS_G12C pERK assay). The format is cell-based. As to conditions: Homo sapiens, cells incubated with compound 4 hours, read-out: G12C_pERK IC50. As to the method:
MIA PaCa-2 (KRAS G12C; ATCC® CRL-1420), A427 (KRAS G12D; ATCC® HTB53), HPAF-II (KRAS G12D; ATCC® CRL-1997) and NCI-H838 (KRAS WT; ATCC® CRL-5844) cells are purchased from ATCC and maintained in RPMI 1640 media supplemented with 10% FBS (Gibco/Life Technologies). The cells are plated at 5000 cells per well (8 uL) into Greiner 384-well low volume, flat-bottom, tissue culture treated white plates and incubated overnight at 37° C., 5% CO2. The next morning, test compound stock solutions are diluted in media at 3× the final concentration, and 4 uL are added to the cells. The plate is mixed by gentle rotation for 30 seconds (250 rpm) at room temperature. The cells are incubated with the KRAS G12C and G12D compounds for 4 hours or 2 hours respectively at 37° C., 5% CO2.
4 uL of 4× lysis buffer with blocking reagent (1:25) (Cisbio) are added to each well and plates are rotated gently (300 rpm) for 30 minutes at room temperature. 4 uL per well of Cisbio anti Phospho-ERK 1/2 d2 is mixed with anti Phospho-ERK 1/2 Cryptate (1:1) are added to each well, mixed by rotation and incubated overnight in the dark at room temperature. Plates are read on the Pherastar plate reader at 665 nm and 620 nm wavelengths. IC50 determination is performed by fitting the curve of inhibitor percent inhibition versus the log of the inhibitor concentration using the GraphPad Prism 7 software.
(In general: Time-resolved FRET reads energy transfer from a long-lived donor to a nearby acceptor.)

Sequence of KRAS G12C (P01116 1-188 isoform P01116-2 G12C): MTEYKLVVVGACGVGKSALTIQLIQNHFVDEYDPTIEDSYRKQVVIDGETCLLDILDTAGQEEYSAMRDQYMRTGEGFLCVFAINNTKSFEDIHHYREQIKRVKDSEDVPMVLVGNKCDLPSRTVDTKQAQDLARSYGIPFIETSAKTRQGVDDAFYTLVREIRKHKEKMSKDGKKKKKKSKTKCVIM

Take `C=Cc1ncc2n1CCN(c1nc(OCC3CCCCN3C)nc3c1CCN(c1cccc4cccc(Cl)c14)C3)C2` (centres unmarked) [Example 7, 7-(8-Chloronaphthalen-1-yl)-2-((1-methylpiperidin-2-yl)methoxy)-4-(3-vinyl-5,6-dihydroimidazo[1,5-a]pyrazin-7(8H)-yl)-5,6,7,8-tetrahydropyrido[3,4-d]pyrimidine]: the IC50 at KRAS G12C lay within 100 to 1000 nM.

In the case of `C=Cc1ncc2n1CCN(c1nc(OCC3(C#N)CCCC3)nc3c1CCN(c1cccc4cccc(Cl)c14)C3)C2` [Example 12, 1-(((7-(8-Chloronaphthalen-1-yl)-4-(3-vinyl-5,6-dihydroimidazo[1,5-a]pyrazin-7(8H)-yl)-5,6,7,8-tetrahydropyrido[3,4-d]pyrimidin-2-yl)oxy)methyl)cyclopentane-1-carbonitrile], the IC50 on KRAS G12C was in the range of 1000 to 5000 nM. `C=Cc1ncc2n1CCN(c1nc(OCCCN3CCCCC3)nc3c1CCN(c1cccc4cccc(Cl)c14)C3)C2` [Example 5, 7-(8-Chloronaphthalen-1-yl)-2-(3-(piperidin-1-yl)propoxy)-4-(3-vinyl-5,6-dihydroimidazo[1,5-a]pyrazin-7(8H)-yl)-5,6,7,8-tetrahydropyrido[3,4-d]pyrimidine]: the results for the IC50 (on KRAS G12C; in assay [1]) were 100 to 1000 nM and 1000 to 5000 nM, respectively. In the same order, the values of `C=Cc1ncc2n1CCN(c1nc(OC[C@@H]3CCCN3C)nc3c1CCN(c1cccc4ccccc14)C3)C2` [Example 3, (S)-2-((1-Methylpyrrolidin-2-yl)methoxy)-7-(naphthalen-1-yl)-4-(3-vinyl-5,6-dihydroimidazo[1,5-a]pyrazin-7(8H)-yl)-5,6,7,8-tetrahydropyrido[3,4-d]pyrimidine] are ≤ 100 nM and 1000 to 5000 nM. The matching figures for `C=Cc1ncc2n1CCN(c1nc(OCCCN3CCOCC3)nc3c1CCN(c1cccc4cccc(Cl)c14)C3)C2` [Example 1, 4-(3-((7-(8-Chloronaphthalen-1-yl)-4-(3-vinyl-5,6-dihydroimidazo[1,5-a]pyrazin-7(8H)-yl)-5,6,7,8-tetrahydropyrido[3,4-d]pyrimidin-2-yl)oxy)propyl)morpholine]: 100 to 1000 nM and 1000 to 5000 nM. As to `C=Cc1ncc2n1CCN(c1nc(OCCCN3CCOCC3)nc3c1CCN(c1cc(O)cc4ccccc14)C3)C2` [Example 13, 4-(2-(3-Morpholinopropoxy)-4-(3-vinyl-5,6-dihydroimidazo[1,5-a]pyrazin-7(8H)-yl)-5,8-dihydropyrido[3,4-d]pyrimidin-7(6H)-yl)naphthalen-2-ol], the half-maximal inhibitory concentration (IC50) at KRAS G12C was 1000 to 5000 nM. Same read-out and setting: the value for `C=Cc1cnc2n1CCN(c1nc(OCCCN3CCOCC3)nc3c1CCN(c1cccc4cccc(Cl)c14)C3)C2` [Example 15, 4-(3-((7-(8-Chloronaphthalen-1-yl)-4-(3-vinyl-5,6-dihydroimidazo[1,2-a]pyrazin-7(8H)-yl)-5,6,7,8-tetrahydropyrido[3,4-d]pyrimidin-2-yl)oxy)propyl)morpholine] was 1000 to 5000 nM; that for `C=Cc1ncc2n1CCN(c1nc(OCCC3CCCN3C)nc3c1CCN(c1cccc4cccc(Cl)c14)C3)C2` (centres unmarked) [Example 8, 7-(8-Chloronaphthalen-1-yl)-2-(2-(1-methylpyrrolidin-2-yl)ethoxy)-4-(3-vinyl-5,6-dihydroimidazo[1,5-a]pyrazin-7(8H)-yl)-5,6,7,8-tetrahydropyrido[3,4-d]pyrimidine] was 100 to 1000 nM; that for `C=Cc1cnc2n1CCN(c1nc(OC[C@@H]3CCCN3C)nc3c1CCN(c1cccc4cccc(Cl)c14)C3)C2` [Example 14, (S)-7-(8-Chloronaphthalen-1-yl)-2-((1-methylpyrrolidin-2-yl)methoxy)-4-(3-vinyl-5,6-dihydroimidazo[1,2-a]pyrazin-7(8H)-yl)-5,6,7,8-tetrahydropyrido[3,4-d]pyrimidine] was 1000 to 5000 nM. In the case of `C=Cc1ncc2n1CCN(c1nc(OC[C@@H]3CCCN3C)nc3c1CCN(c1cccc4cccc(Cl)c14)C3)C2` [Example 4, (S)-7-(8-Chloronaphthalen-1-yl)-2-((1-methylpyrrolidin-2-yl)methoxy)-4-(3-vinyl-5,6-dihydroimidazo[1,5-a]pyrazin-7(8H)-yl)-5,6,7,8-tetrahydropyrido[3,4-d]pyrimidine], the results for the IC50 (on KRAS G12C; in assay [1]) were 100 to 1000 nM and 1000 to 5000 nM, respectively. In the case of `C=Cc1ncc2n1CCN(c1nc(OC[C@@H]3CCCN3Cc3ccccc3)nc3c1CCN(c1cccc4cccc(Cl)c14)C3)C2` [Example 10, (S)-2-((1-Benzylpyrrolidin-2-yl)methoxy)-7-(8-chloronaphthalen-1-yl)-4-(3-vinyl-5,6-dihydroimidazo[1,5-a]pyrazin-7(8H)-yl)-5,6,7,8-tetrahydropyrido[3,4-d]pyrimidine], the IC50 at KRAS G12C lay within 100 to 1000 nM. As for `C=Cc1ncc2n1CCN(c1nc(OCCCN3CCOCC3)nc3c1CCN(c1cccc4ccccc14)C3)C2` [Example 2, 4-(3-((7-(Naphthalen-1-yl)-4-(3-vinyl-5,6-dihydroimidazo[1,5-a]pyrazin-7(8H)-yl)-5,6,7,8-tetrahydropyrido[3,4-d]pyrimidin-2-yl)oxy)propyl)morpholine], the 50% inhibitory concentration (IC50) at KRAS G12C is ≤ 100 nM; in assay [1], 1000 to 5000 nM. In the same order, the values of `C=Cc1ncc2n1CCN(c1nc(OC[C@H]3CCCN3C)nc3c1CCN(c1cc(O)cc4ccccc14)C3)C2` [Example 11, (R)-4-(2-((1-Methylpyrrolidin-2-yl)methoxy)-4-(3-vinyl-5,6-dihydroimidazo[1,5-a]pyrazin-7(8H)-yl)-5,8-dihydropyrido[3,4-d]pyrimidin-7(6H)-yl)naphthalen-2-ol] are 100 to 1000 nM and 1000 to 5000 nM.

Take `C=Cc1ncc2n1CCN(c1nc(OCC3CCCN(C)C3)nc3c1CCN(c1cccc4cccc(Cl)c14)C3)C2` (centres unmarked) [Example 6, 7-(8-Chloronaphthalen-1-yl)-2-((1-methylpiperidin-3-yl)methoxy)-4-(3-vinyl-5,6-dihydroimidazo[1,5-a]pyrazin-7(8H)-yl)-5,6,7,8-tetrahydropyrido[3,4-d]pyrimidine]: the IC50 at KRAS G12C was 100 to 1000 nM; in assay [1], 1000 to 5000 nM. As for `C=Cc1ncc2n1CCN(c1nc(OC[C@@H]3CCCN3C)nc3c1CCN(c1cc(O)cc4ccccc14)C3)C2` [Example 9, (S)-4-(2-((1-Methylpyrrolidin-2-yl)methoxy)-4-(3-vinyl-5,6-dihydroimidazo[1,5-a]pyrazin-7(8H)-yl)-5,8-dihydropyrido[3,4-d]pyrimidin-7(6H)-yl)naphthalen-2-ol], the IC50 on KRAS G12C is 100 to 1000 nM; in assay [1] it was 1000 to 5000 nM.

A word on the IC50: it is the concentration at which inhibition is half-maximal.
